Source: ChEMBL document CHEMBL1138126, “Tyrosine kinase inhibitors. 19. 6-Alkynamides of 4-anilinoquinazolines and 4-anilinopyrido[3,4-d]pyrimidines as irreversible inhibitors of the erbB family of tyrosine kinase receptors” (J Med Chem, 2006)
The source made the active and inactive calls. No cut-off for these calls is given here.

Columns and labels:
[1] = target: T1, Receptor tyrosine-protein kinase erbB-2 (Homo sapiens, UniProt P04626)
Description: Inhibition of HER stimulated human erbB autophosphorylation in MDA-MB-453 cells

[2] = target: T2, Epidermal growth factor receptor (Homo sapiens, UniProt P00533); assay: Inhibition of EGF stimulated human erbB1 autophosphorylation in NIH3T3 cells
T2 sequence (P00533 whole entry): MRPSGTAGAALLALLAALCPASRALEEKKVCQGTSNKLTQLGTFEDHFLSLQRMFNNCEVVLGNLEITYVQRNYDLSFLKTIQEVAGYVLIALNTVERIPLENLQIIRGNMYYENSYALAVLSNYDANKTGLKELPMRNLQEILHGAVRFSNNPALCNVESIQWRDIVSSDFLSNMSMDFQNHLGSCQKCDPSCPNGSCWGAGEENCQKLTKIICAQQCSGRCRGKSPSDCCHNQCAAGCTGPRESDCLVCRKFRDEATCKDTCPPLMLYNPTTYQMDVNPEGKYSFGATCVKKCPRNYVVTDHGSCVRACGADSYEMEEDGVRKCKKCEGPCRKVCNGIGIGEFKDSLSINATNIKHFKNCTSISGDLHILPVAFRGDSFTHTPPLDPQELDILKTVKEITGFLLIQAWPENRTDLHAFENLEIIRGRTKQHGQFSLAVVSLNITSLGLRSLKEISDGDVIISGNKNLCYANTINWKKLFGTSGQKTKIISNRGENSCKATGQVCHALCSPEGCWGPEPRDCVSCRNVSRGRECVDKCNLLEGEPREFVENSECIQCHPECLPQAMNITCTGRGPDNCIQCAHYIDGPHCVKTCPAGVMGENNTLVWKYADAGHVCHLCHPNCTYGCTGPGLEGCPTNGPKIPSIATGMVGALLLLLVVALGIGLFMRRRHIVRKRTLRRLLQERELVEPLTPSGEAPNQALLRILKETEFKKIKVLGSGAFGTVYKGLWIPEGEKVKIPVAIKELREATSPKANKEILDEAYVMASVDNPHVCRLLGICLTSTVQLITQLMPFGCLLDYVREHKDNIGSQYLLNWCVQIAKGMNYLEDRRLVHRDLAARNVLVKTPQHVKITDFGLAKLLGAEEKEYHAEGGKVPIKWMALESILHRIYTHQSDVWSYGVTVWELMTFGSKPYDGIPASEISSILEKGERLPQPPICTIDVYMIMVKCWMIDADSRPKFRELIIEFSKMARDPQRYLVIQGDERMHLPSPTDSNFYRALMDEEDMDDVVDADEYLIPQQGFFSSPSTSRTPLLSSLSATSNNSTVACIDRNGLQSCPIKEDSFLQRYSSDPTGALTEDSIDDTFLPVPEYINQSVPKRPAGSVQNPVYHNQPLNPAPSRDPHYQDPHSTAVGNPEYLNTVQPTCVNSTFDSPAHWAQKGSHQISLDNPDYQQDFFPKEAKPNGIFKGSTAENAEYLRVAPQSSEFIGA

[3] = target: T1, Receptor tyrosine-protein kinase erbB-2; remark: listed apart in the source
Description: Inhibition of erbB2 fusion protein expressed in baculovirus by ELISA

[4] = target: T2, Epidermal growth factor receptor; assay: Inhibition of erbB1 fusion protein expressed in baculovirus by ELISA
[5] = target: Receptor tyrosine-protein kinase erbB-4 (Homo sapiens, UniProt Q15303)
Chain of Receptor tyrosine-protein kinase erbB-4 (Q15303 whole entry): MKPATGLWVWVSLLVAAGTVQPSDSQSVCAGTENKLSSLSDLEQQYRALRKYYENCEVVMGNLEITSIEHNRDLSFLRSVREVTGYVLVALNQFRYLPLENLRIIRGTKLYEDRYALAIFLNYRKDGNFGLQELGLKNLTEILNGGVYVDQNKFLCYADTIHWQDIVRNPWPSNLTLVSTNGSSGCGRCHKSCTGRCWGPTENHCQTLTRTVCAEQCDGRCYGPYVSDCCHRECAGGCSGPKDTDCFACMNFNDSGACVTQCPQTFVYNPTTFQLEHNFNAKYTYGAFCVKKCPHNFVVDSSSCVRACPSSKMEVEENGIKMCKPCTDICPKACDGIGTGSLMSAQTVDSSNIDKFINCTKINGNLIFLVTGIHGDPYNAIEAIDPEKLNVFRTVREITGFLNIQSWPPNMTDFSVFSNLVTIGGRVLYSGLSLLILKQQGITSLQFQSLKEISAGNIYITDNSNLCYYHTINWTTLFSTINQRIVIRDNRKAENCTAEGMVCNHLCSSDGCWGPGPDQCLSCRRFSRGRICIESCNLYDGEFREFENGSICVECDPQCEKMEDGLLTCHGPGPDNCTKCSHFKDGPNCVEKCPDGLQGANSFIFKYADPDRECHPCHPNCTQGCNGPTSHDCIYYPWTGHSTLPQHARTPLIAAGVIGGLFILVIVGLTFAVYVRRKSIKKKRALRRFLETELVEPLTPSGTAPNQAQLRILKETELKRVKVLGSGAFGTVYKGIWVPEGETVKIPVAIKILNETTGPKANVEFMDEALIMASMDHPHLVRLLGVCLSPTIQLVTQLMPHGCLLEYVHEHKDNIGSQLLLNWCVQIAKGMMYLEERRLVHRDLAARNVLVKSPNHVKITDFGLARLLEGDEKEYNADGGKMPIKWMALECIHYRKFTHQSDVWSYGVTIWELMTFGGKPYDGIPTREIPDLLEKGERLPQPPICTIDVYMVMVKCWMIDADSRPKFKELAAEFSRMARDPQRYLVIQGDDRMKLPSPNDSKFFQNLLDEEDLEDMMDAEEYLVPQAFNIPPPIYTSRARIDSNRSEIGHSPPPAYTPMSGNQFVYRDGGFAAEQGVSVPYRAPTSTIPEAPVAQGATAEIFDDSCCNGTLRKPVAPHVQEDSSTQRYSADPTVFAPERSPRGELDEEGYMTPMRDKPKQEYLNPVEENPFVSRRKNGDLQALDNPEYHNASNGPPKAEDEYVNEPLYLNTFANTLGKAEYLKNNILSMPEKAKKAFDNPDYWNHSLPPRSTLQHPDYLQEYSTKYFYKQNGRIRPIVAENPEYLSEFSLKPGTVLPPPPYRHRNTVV
Description: Inhibition of erbB4 fusion protein expressed in baculovirus by ELISA

Mus musculus [6] = assay: Antitumor activity in SCID mice implanted with BXPC3 xenografts at 40 mg/kg, po; assay type: functional, organism-based; design: dose 40 mg/kg; details: CB17
[7] = Half life in monkey at 5 mg/kg, iv; assay type: ADME, organism-based, Macaca mulatta; design: dose 5 mg/kg, route intravenous; details: rhesus monkey, in vivo
[8] = Cmax in rat at 15 mg/kg, po; assay type: ADME, organism-based; design: dose 15 mg/kg, route oral; details: in vivo
[9] = Oral bioavailability in dog at 15 mg/kg; assay type: ADME, organism-based, Canis lupus familiaris; details: in vivo
Mus musculus [10] = assay: Antitumor activity in NCr nu/nu mice implanted with H125 NSC xenografts at 40 mg/kg, po; assay type: functional, organism-based; design: dose 40 mg/kg
[11] = Tmax in rat at 15 mg/kg, po; assay type: ADME, organism-based; design: dose 15 mg/kg, route oral; details: in vivo
Mus musculus [12] = assay: Antitumor activity in NCr nu/nu mice implanted with SKOV3 xenografts at 40 mg/kg, po; assay type: functional, organism-based; design: dose 40 mg/kg
[13] = AUC(0-tz) in rat at 5 mg/kg, iv; assay type: ADME, organism-based; design: dose 5 mg/kg, route intravenous; details: plasma
[14] = AUC(0-tz) in dog at 15 mg/kg, po; assay type: ADME, organism-based, Canis lupus familiaris; design: dose 15 mg/kg, route oral; details: plasma
[15] = Plasma clearance in dog at 5 mg/kg, iv; assay type: ADME, organism-based, Canis lupus familiaris; design: dose 5 mg/kg, route intravenous
[16] = AUC(0-tz) in dog at 5 mg/kg, iv; assay type: ADME, organism-based, Canis lupus familiaris; design: dose 5 mg/kg, route intravenous; details: plasma
[17] = AUC(0-tz) in monkey at 30 mg/kg, po; assay type: ADME, organism-based, Macaca mulatta; design: dose 30 mg/kg, route oral; details: rhesus monkey, plasma
[18] = Volume of distribution in rat at 5 mg/kg, iv; assay type: ADME, organism-based; design: dose 5 mg/kg, route intravenous; details: in vivo, read-out: Vdss
[19] = Plasma clearance in monkey at 5 mg/kg, iv; assay type: ADME, organism-based, Macaca mulatta; design: dose 5 mg/kg, route intravenous; details: rhesus monkey
Insulin receptor = Insulin receptor (Homo sapiens, UniProt P06213); assay: Inhibition of insulin receptor
Chain of Insulin receptor (P06213 28-758 limits assumed): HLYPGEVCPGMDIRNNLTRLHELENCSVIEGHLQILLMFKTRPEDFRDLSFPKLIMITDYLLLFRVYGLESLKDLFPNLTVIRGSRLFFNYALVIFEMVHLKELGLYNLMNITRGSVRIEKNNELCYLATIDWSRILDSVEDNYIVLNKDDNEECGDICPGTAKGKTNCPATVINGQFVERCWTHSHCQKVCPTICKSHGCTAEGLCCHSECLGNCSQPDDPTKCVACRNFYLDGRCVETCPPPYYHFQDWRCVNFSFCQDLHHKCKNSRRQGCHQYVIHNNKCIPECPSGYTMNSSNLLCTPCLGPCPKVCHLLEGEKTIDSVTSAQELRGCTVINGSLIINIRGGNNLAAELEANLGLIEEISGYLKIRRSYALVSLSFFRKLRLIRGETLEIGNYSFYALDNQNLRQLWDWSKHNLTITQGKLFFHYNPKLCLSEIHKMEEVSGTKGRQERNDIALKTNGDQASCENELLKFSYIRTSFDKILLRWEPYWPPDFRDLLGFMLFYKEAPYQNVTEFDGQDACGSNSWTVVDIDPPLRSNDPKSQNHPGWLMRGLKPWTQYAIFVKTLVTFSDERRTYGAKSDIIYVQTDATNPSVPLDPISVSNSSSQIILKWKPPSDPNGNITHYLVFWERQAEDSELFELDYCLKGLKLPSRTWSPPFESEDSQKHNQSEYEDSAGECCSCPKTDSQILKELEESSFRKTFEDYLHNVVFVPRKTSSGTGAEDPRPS
Chain of Insulin receptor (P06213 763-1382 limits assumed): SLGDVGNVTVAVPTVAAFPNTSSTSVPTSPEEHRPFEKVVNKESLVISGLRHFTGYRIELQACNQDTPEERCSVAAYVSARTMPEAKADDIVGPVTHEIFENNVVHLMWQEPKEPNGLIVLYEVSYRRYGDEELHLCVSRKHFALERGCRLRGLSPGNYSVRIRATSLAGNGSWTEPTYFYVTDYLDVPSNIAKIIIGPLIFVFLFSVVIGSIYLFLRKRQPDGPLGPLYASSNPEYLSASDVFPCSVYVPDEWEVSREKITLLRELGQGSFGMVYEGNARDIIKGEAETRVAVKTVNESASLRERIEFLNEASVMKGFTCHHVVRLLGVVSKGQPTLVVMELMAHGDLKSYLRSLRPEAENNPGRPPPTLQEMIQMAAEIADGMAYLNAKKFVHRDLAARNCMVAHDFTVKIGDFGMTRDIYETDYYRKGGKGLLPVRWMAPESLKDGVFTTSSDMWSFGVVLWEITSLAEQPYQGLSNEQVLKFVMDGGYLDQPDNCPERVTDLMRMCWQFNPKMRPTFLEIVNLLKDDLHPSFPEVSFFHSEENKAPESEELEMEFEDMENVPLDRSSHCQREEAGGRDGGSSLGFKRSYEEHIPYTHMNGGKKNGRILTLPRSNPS

[20] = Oral bioavailability in rat at 15 mg/kg; assay type: ADME, organism-based; details: in vivo
Mus musculus [21] = assay: Antitumor activity in NCr nu/nu mice implanted with A431 xenografts at 10 mg/kg, po; assay type: functional, organism-based; design: dose 10 mg/kg
[22] = Plasma clearance in rat at 5 mg/kg, iv; assay type: ADME, organism-based; design: dose 5 mg/kg, route intravenous
[23] = Volume of distribution in monkey at 5 mg/kg, iv; assay type: ADME, organism-based, Macaca mulatta; design: dose 5 mg/kg, route intravenous; details: rhesus monkey, in vivo, read-out: Vdss
[24] = Tmax in monkey at 30 mg/kg, po; assay type: ADME, organism-based, Macaca mulatta; design: dose 30 mg/kg, route oral; details: rhesus monkey, in vivo
[25] = target: T1, Receptor tyrosine-protein kinase erbB-2; remark: listed apart in the source
Description: Inhibition of ligand stimulated erbB2 autophosphorylation in T24 NIH cells

[26] = target: Fibroblast growth factor receptor (Homo sapiens, UniProt P22607+P11362+P22455+P21802); assay: Inhibition of FGFR; assay type: protein assay
[27] = Volume of distribution in dog at 5 mg/kg, iv; assay type: ADME, organism-based, Canis lupus familiaris; design: dose 5 mg/kg, route intravenous; details: in vivo, read-out: Vdss
[28] = Oral bioavailability in monkey at 30 mg/kg; assay type: ADME, organism-based, Macaca mulatta; details: rhesus monkey, in vivo
[29] = Half life in dog at 5 mg/kg, iv; assay type: ADME, organism-based, Canis lupus familiaris; design: dose 5 mg/kg, route intravenous; details: in vivo
[30] = AUC(0-tz) in monkey at 5 mg/kg, iv; assay type: ADME, organism-based, Macaca mulatta; design: dose 5 mg/kg, route intravenous; details: rhesus monkey, plasma
[31] = target: Platelet-derived growth factor receptor (Homo sapiens, UniProt P09619+P16234); assay: Inhibition of PDGF receptor; assay type: protein-complex assay
[32] = Cmax in monkey at 30 mg/kg, po; assay type: ADME, organism-based, Macaca mulatta; design: dose 30 mg/kg, route oral; details: rhesus monkey, in vivo
[33] = AUC(0-tz) in rat at 15 mg/kg, po; assay type: ADME, organism-based; design: dose 15 mg/kg, route oral; details: plasma
[34] = Half life in rat at 5 mg/kg, iv; assay type: ADME, organism-based; design: dose 5 mg/kg, route intravenous; details: in vivo
[35] = Cmax in dog at 15 mg/kg, po; assay type: ADME, organism-based, Canis lupus familiaris; design: dose 15 mg/kg, route oral; details: in vivo
Mus musculus [36] = assay: Antitumor activity in SCID mice implanted with SF 767 xenografts at 40 mg/kg, po; assay type: functional, organism-based; design: dose 40 mg/kg; details: CB17
[37] = Tmax in dog at 15 mg/kg, po; assay type: ADME, organism-based, Canis lupus familiaris; design: dose 15 mg/kg, route oral; details: in vivo

T1 sequence (P04626 whole entry): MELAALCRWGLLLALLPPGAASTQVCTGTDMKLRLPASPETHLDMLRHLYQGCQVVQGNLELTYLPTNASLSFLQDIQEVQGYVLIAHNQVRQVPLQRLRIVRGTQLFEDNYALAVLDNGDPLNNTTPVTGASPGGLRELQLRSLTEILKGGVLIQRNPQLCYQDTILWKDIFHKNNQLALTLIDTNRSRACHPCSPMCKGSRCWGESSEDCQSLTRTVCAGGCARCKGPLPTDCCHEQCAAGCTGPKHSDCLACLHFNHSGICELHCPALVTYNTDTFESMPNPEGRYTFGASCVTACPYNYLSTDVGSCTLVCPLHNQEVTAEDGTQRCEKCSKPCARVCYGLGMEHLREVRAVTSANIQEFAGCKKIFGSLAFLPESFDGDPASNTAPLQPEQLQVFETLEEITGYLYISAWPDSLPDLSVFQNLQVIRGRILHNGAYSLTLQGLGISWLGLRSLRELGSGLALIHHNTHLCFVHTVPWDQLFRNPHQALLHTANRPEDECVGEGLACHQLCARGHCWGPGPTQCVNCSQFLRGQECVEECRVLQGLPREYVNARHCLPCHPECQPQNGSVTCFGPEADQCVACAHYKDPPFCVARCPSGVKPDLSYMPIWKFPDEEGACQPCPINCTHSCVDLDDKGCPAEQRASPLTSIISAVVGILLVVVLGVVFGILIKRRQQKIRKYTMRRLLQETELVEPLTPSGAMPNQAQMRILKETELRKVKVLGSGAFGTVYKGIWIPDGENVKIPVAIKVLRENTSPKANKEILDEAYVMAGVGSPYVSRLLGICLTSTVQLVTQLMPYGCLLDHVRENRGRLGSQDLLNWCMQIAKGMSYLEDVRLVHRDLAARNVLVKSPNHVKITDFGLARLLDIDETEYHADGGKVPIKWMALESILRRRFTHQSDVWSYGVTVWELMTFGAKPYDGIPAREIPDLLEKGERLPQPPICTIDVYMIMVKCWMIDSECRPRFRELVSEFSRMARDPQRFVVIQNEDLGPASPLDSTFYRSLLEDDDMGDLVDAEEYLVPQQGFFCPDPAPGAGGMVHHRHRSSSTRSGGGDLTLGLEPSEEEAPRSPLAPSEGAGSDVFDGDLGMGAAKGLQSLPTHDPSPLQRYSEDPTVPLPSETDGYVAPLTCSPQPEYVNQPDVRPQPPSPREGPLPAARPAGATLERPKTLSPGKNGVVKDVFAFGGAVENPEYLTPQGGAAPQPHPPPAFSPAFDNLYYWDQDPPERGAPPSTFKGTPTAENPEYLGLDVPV

CCCC#CC(=O)Nc1cc2c(Nc3ccc(F)c(Cl)c3)ncnc2cn1
IC50 [1]: 170 nM
IC50 [2]: 9.6 nM
IC50 [3]: 3.8 nM
IC50 [4]: 1.7 nM
IC50 [5]: 2.4 nM

CCN(CC)CC#CC(=O)Nc1cc2c(Nc3ccc(F)c(Cl)c3)ncnc2cn1
IC50 [1]: 116 nM
IC50 [2]: 48 nM
IC50 [3]: 597 nM
IC50 [4]: 15 nM
IC50 [5]: 644 nM

CN1CCN(CCC#CC(=O)Nc2cc3c(Nc4ccc(F)c(Cl)c4)ncnc3cn2)CC1
Activity (Mus musculus [6]): Active
half-life [7]: 0.37 h
Cmax [8]: 56.3 ng/mL
bioavailability [9]: 67.8%
Activity (Mus musculus [10]): Active
IC50 [1]: 1 nM
Tmax [11]: 4.7 h
Activity (Mus musculus [12]): Active
AUC [13]: 703 ng·h/mL
IC50 [3]: 0.7 nM
AUC [14]: 15200 ng·h/mL
clearance [15]: 11.5 mL/min/kg
AUC [16]: 7470 ng·h/mL
AUC [17]: 485 ng·h/mL
Vd [18]: 3.1 L/kg
clearance [19]: 85.8 mL/min/kg
IC50 (Insulin receptor): > 50000 nM
bioavailability [20]: 11.4%
Activity (Mus musculus [21]): Active
clearance [22]: 119 mL/min/kg
Vd [23]: 1.7 L/kg
Tmax [24]: 3.5 h
IC50 [25]: 0.8 nM
IC50 [26]: > 50000 nM
Vd [27]: 0.93 L/kg
bioavailability [28]: 6.75%
half-life [29]: 1.86 h
AUC [30]: 1190 ng·h/mL
IC50 [31]: > 50000 nM
Cmax [32]: 83.5 ng/mL
AUC [33]: 240 ng·h/mL
half-life [34]: 0.83 h
IC50 [5]: 1.2 nM
Cmax [35]: 4180 ng/mL
Activity (Mus musculus [36]): Active
Tmax [37]: 1 h

O=C(C#CCCN1CCCCC1)Nc1cc2c(Nc3ccc(F)c(Cl)c3)ncnc2cn1
IC50 [1]: 2 nM
IC50 [2]: 4.3 nM
IC50 [3]: 2.1 nM
IC50 [4]: 0.9 nM
IC50 [5]: 1.8 nM

CC#CC(=O)Nc1ccc2ncnc(Nc3cccc(Br)c3)c2c1
IC50 [3]: 17 nM
IC50 [5]: 12 nM

O=C(C#CCO)Nc1ccc2ncnc(Nc3ccc(F)c(Cl)c3)c2c1
IC50 [1]: 43 nM
IC50 [2]: 25 nM
IC50 [3]: 2.1 nM
IC50 [4]: 1.4 nM
IC50 [5]: 7.3 nM

CC(C)N(CC#CC(=O)Nc1ccc2ncnc(Nc3ccc(F)c(Cl)c3)c2c1)C(C)C
IC50 [1]: 65 nM
IC50 [3]: 2.8 nM

CN1CCN(CCC#CC(=O)Nc2cc3c(Nc4ccc(F)c(Br)c4)ncnc3cn2)CC1
IC50 [1]: 3.5 nM
IC50 [2]: 2.7 nM
IC50 [3]: 0.5 nM
IC50 [4]: 1.1 nM
IC50 [5]: 0.8 nM

CCN(CC)CCC#CC(=O)Nc1ccc2ncnc(Nc3ccc(F)c(Cl)c3)c2c1
IC50 [1]: 23 nM
IC50 [2]: 4.5 nM
IC50 [3]: 2.6 nM
IC50 [4]: 1.8 nM
IC50 [5]: 16 nM

CCCCN(CC#CC(=O)Nc1ccc2ncnc(Nc3ccc(F)c(Cl)c3)c2c1)CCCC
IC50 [1]: 32 nM
IC50 [2]: 11 nM
IC50 [3]: 464 nM
IC50 [4]: 40 nM
IC50 [5]: 624 nM

C#CC(=O)Nc1cc2c(Nc3cccc(Br)c3)ncnc2cn1
IC50 [2]: 15 nM
IC50 [3]: 2.4 nM
IC50 [4]: 0.6 nM
IC50 [5]: 13 nM

O=C(C#CCCN1CCOCC1)Nc1cc2c(Nc3ccc(F)c(Cl)c3)ncnc2cn1
IC50 [1]: 5 nM
IC50 [2]: 1.8 nM
IC50 [3]: 0.8 nM
IC50 [4]: 1.3 nM
IC50 [5]: 1 nM

O=C(C#CCN1CCOCC1)Nc1cc2c(Nc3ccc(F)c(Cl)c3)ncnc2cn1
IC50 [1]: 22 nM
IC50 [2]: 14 nM
IC50 [3]: 26 nM
IC50 [4]: 3.1 nM
IC50 [5]: 6.2 nM

O=C(C#CCCN1CCOCC1)Nc1ccc2ncnc(Nc3ccc(F)c(Cl)c3)c2c1
IC50 [1]: 7.6 nM
IC50 [2]: 12 nM
IC50 [3]: 2.3 nM
IC50 [4]: 1.7 nM
IC50 [5]: 4.3 nM

C#CC(=O)Nc1ccc2ncnc(Nc3cccc(Br)c3)c2c1
IC50 [3]: 1.9 nM
IC50 [5]: 1.7 nM

CCCCN(CC#CC(=O)Nc1cc2c(Nc3ccc(F)c(Cl)c3)ncnc2cn1)CCCC
IC50 [1]: 320 nM
IC50 [2]: 49 nM
IC50 [3]: 67 nM
IC50 [4]: 17 nM
IC50 [5]: 73 nM

CC#CC(=O)Nc1cc2c(Nc3ccc(F)c(Cl)c3)ncnc2cn1
IC50 [1]: 24 nM
IC50 [3]: 1.1 nM
IC50 [5]: 0.5 nM

CC(C)N(CC#CC(=O)Nc1cc2c(Nc3ccc(F)c(Cl)c3)ncnc2cn1)C(C)C
IC50 [1]: 36 nM
IC50 [2]: 73 nM
IC50 [3]: > 1000 nM
IC50 [4]: 44 nM
IC50 [5]: 538 nM

O=C(C#CCCN1CCOCC1)Nc1cc2c(Nc3ccc(F)c(Br)c3)ncnc2cn1
IC50 [1]: 0.5 nM
IC50 [2]: 4.5 nM
IC50 [3]: 0.7 nM
IC50 [4]: 1.5 nM
IC50 [5]: 1 nM

CCN(CC)CC#CC(=O)Nc1ccc2ncnc(Nc3ccc(F)c(Cl)c3)c2c1
IC50 [1]: 7.5 nM
IC50 [2]: 6.8 nM
IC50 [3]: 46 nM
IC50 [4]: 3.1 nM
IC50 [5]: 310 nM

O=C(C#CCN1CCOCC1)Nc1ccc2ncnc(Nc3ccc(F)c(Cl)c3)c2c1
IC50 [1]: 173 nM
IC50 [2]: 31 nM
IC50 [3]: 300 nM
IC50 [4]: 86 nM
IC50 [5]: 229 nM

CCCCC#CC(=O)Nc1cc2c(Nc3ccc(F)c(Cl)c3)ncnc2cn1
IC50 [1]: 20 nM
IC50 [2]: 4.5 nM
IC50 [3]: 5.4 nM
IC50 [4]: 15 nM
IC50 [5]: 7.1 nM
